Laboratory results: the supplement of paper PMC9663587

Columns and labels:
[1] = compound: CC(=O)Nc1cccc(-n2c(=O)n(C3CC3)c(=O)c3c(Nc4ccc(I)cc4F)n(C)c(=O)c(C)c32)c1
Doxorubicin = compound: COc1cccc2c1C(=O)c1c(O)c3c(c(O)c1C2=O)C[C@@](O)(C(=O)CO)C[C@@H]3O[C@H]1C[C@H](N)[C@H](O)[C@H](C)O1 [Doxorubicin]
Ceritinib/LDK378 = compound: Cc1cc(Nc2ncc(Cl)c(Nc3ccccc3S(=O)(=O)C(C)C)n2)c(OC(C)C)cc1C1CCNCC1 [Ceritinib/LDK378]
Volasertib/BI6727 = compound: CC[C@@H]1C(=O)N(C)c2cnc(Nc3ccc(C(=O)N[C@H]4CC[C@H](N5CCN(CC6CC6)CC5)CC4)cc3OC)nc2N1C(C)C [Volasertib/BI6727]
THZ531 [2] = compound: T1, CN(C)C/C=C/C(=O)Nc1ccc(C(=O)N2CCC[C@@H](Nc3ncc(Cl)c(-c4c[nH]c5ccccc45)n3)C2)cc1 [THZ531]
BSJ-03-123 [3] = compound: T2, CC(=O)c1c(C)c2cnc(Nc3ccc(N4CCN(CCOCCOCCOCCNC(=O)COc5cccc6c5C(=O)N(C5CCC(=O)NC5=O)C6=O)CC4)cn3)nc2n(C2CCCC2)c1=O [BSJ-03-123]
Neratinib/HKI272 [4] = compound: T3, CCOc1cc2ncc(C#N)c(Nc3ccc(OCc4ccccn4)c(Cl)c3)c2cc1NC(=O)/C=C/CN(C)C [Neratinib/HKI272]
[5] = compound: CO[C@@H](C)Cn1c(=O)n(C)c2cnc3ccc(-c4cncc(C(C)(C)O)c4)cc3c21
Vorinostat = compound: O=C(CCCCCCC(=O)Nc1ccccc1)NO [Vorinostat]
AZD2014 = compound: CNC(=O)c1cccc(-c2ccc3c(N4CCOC[C@@H]4C)nc(N4CCOC[C@@H]4C)nc3n2)c1 [AZD2014]
[6] = compound: CC(=O)c1c(C)c2cnc(Nc3ccc(N4CCNCC4)cn3)nc2n(C2CCCC2)c1=O
Taselisib/GDC0032 = compound: Cc1nc(-c2cn3c(n2)-c2ccc(-c4cnn(C(C)(C)C(N)=O)c4)cc2OCC3)n(C(C)C)n1 [Taselisib/GDC0032]
INK128/MLN0128 = compound: CC(C)n1nc(-c2ccc3oc(N)nc3c2)c2c(N)ncnc21 [INK128/MLN0128]
BSJ-01-175 = compound: CN(C)C/C=C/C(=O)Nc1ccc(O[C@@H]2CCC[C@@H](Nc3ncc(Cl)c(-c4c[nH]c5ccccc45)n3)C2)cc1 [BSJ-01-175]
Rucaparib = compound: CNCc1ccc(-c2[nH]c3cc(F)cc4c3c2CCNC4=O)cc1 [Rucaparib]
Dasatinib = compound: Cc1nc(Nc2ncc(C(=O)Nc3c(C)cccc3Cl)s2)cc(N2CCN(CCO)CC2)n1 [Dasatinib]
THZ1 = compound: CN(C)C/C=C/C(=O)Nc1ccc(C(=O)Nc2cccc(Nc3ncc(Cl)c(-c4c[nH]c5ccccc45)n3)c2)cc1 [THZ1]; test: increase in dead-cell fraction, 72 h; higher = more death;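 further: breast cancer cell lines in 384-well plates, stained with Hoechst plus LIVE/DEAD far red dye and imaged, cells above an LDR intensity threshold counted dead, Hoechst-negative corpses included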
THZ531 [7] = compound: T1, THZ531; test: as above
BSJ-03-123 [8] = compound: T2, BSJ-03-123; test: as above
Neratinib/HKI272 [9] = compound: T3, Neratinib/HKI272; test: as above
YKL-5-124 = compound: C=CC(=O)Nc1ccc(C(=O)Nc2[nH]nc3c2CN(C(=O)N[C@H](CN(C)C)c2ccccc2)C3(C)C)cc1 [YKL-5-124]; test: as above
[10] = compound: CCc1cnn2c(NCc3ccc[n+]([O-])c3)cc(N3CCCC[C@H]3CCO)nc12; test: as above
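Wherever GR50, 72 h is given: breast cancer and non-malignant breast epithelial cell lines, Deep Dye Drop or Dye Drop imaging, nine half-log doses, GR normalized to time-zero plates and DMSO-only controls.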

MDAMB231
GR50, 72 h [1]: 0.00263 µM
GR50, 72 h (Doxorubicin): 0.00504 µM
GR50, 72 h (Ceritinib/LDK378): 0.866 µM
GR50, 72 h (Volasertib/BI6727): 0.00436 µM
GR50, 72 h (THZ531 [2]): 0.245 µM
GR50, 72 h (BSJ-03-123 [3]): 0.731 µM
GR50, 72 h (Neratinib/HKI272 [4]): 1.43 µM
GR50, 72 h [5]: 0.031 µM
GR50, 72 h (Vorinostat): 1.24 µM
GR50, 72 h (AZD2014): 0.583 µM
GR50, 72 h [6]: 0.109 µM
GR50, 72 h (Taselisib/GDC0032): 2.2 µM
GR50, 72 h (INK128/MLN0128): 0.0218 µM
GR50, 72 h (BSJ-01-175): 0.0118 µM
GR50, 72 h (Rucaparib): > 10 µM
GR50, 72 h (Dasatinib): 0.0294 µM
increase in dead-cell fraction (THZ1; 0.0001 µM): -0.0006
increase in dead-cell fraction (THZ1; 0.0003162 µM): 0.0015
increase in dead-cell fraction (THZ1; 0.001 µM): 0.0027
increase in dead-cell fraction (THZ1; 0.003162 µM): 0.0007
increase in dead-cell fraction (THZ1; 0.01 µM): -0.0012
increase in dead-cell fraction (THZ1; 0.03162 µM): 0.0033
increase in dead-cell fraction (THZ1; 0.1 µM): 0.0231
increase in dead-cell fraction (THZ1; 0.3162 µM): 0.0712
increase in dead-cell fraction (THZ1; 1 µM): 0.363
increase in dead-cell fraction (THZ531 [7]; 0.0001 µM): -0.0027
increase in dead-cell fraction (THZ531 [7]; 0.0003162 µM): -0.0002
increase in dead-cell fraction (THZ531 [7]; 0.001 µM): 0.002
increase in dead-cell fraction (THZ531 [7]; 0.003162 µM): -0.0005
increase in dead-cell fraction (THZ531 [7]; 0.01 µM): -0.0004
increase in dead-cell fraction (THZ531 [7]; 0.03162 µM): 0.0008
increase in dead-cell fraction (THZ531 [7]; 0.1 µM): 0.0103
increase in dead-cell fraction (THZ531 [7]; 0.3162 µM): 0.0403
increase in dead-cell fraction (THZ531 [7]; 1 µM): 0.224
increase in dead-cell fraction (BSJ-03-123 [8]; 0.001 µM): -0.0008
increase in dead-cell fraction (BSJ-03-123 [8]; 0.003162 µM): -0.0016
increase in dead-cell fraction (BSJ-03-123 [8]; 0.01 µM): 0.0034
increase in dead-cell fraction (BSJ-03-123 [8]; 0.03162 µM): 0.0017
increase in dead-cell fraction (BSJ-03-123 [8]; 0.1 µM): 0.0035
increase in dead-cell fraction (BSJ-03-123 [8]; 0.3162 µM): 0.0024
increase in dead-cell fraction (BSJ-03-123 [8]; 1 µM): 0.0009
increase in dead-cell fraction (BSJ-03-123 [8]; 3.162 µM): 0.0031
increase in dead-cell fraction (BSJ-03-123 [8]; 10 µM): 0.157
increase in dead-cell fraction (Neratinib/HKI272 [9]; 0.0003162 µM): 0.0013
increase in dead-cell fraction (Neratinib/HKI272 [9]; 0.001 µM): -0.0029
increase in dead-cell fraction (Neratinib/HKI272 [9]; 0.003162 µM): 0.0044
increase in dead-cell fraction (Neratinib/HKI272 [9]; 0.01 µM): 0.0008
increase in dead-cell fraction (Neratinib/HKI272 [9]; 0.03162 µM): 0.0108
increase in dead-cell fraction (Neratinib/HKI272 [9]; 0.1 µM): 0.0067
increase in dead-cell fraction (Neratinib/HKI272 [9]; 0.3162 µM): 0.0175
increase in dead-cell fraction (Neratinib/HKI272 [9]; 1 µM): 0.0509
increase in dead-cell fraction (Neratinib/HKI272 [9]; 3.162 µM): 0.378
increase in dead-cell fraction (YKL-5-124; 0.001 µM): 0.0171
increase in dead-cell fraction (YKL-5-124; 0.003162 µM): 0.0093
increase in dead-cell fraction (YKL-5-124; 0.01 µM): 0.016
increase in dead-cell fraction (YKL-5-124; 0.03162 µM): 0.0176
increase in dead-cell fraction (YKL-5-124; 0.1 µM): 0.0238
increase in dead-cell fraction (YKL-5-124; 0.3162 µM): 0.0218
increase in dead-cell fraction (YKL-5-124; 1 µM): 0.0259
increase in dead-cell fraction (YKL-5-124; 3.162 µM): 0.0247
increase in dead-cell fraction (YKL-5-124; 10 µM): 0.155
increase in dead-cell fraction ([10]; 0.0001 µM): 0.0051
increase in dead-cell fraction ([10]; 0.0003162 µM): -0.0006
increase in dead-cell fraction ([10]; 0.001 µM): 0.0055
increase in dead-cell fraction ([10]; 0.003162 µM): -0.0028
increase in dead-cell fraction ([10]; 0.01 µM): 0.0529
increase in dead-cell fraction ([10]; 0.03162 µM): 0.459
increase in dead-cell fraction ([10]; 0.1 µM): 0.573
increase in dead-cell fraction ([10]; 0.3162 µM): 0.582
increase in dead-cell fraction ([10]; 1 µM): 0.618
